Columns and labels:
[1] = tested on: human intestinal cell line NCI-H716; details: literature report, background art; cited from earlier work
GLP-1 release = test: In vivo effects of ligands for GT01 on GLP-1 release (plasma GLP-1 enzyme immunoassay); design: species or system mouse; details: 100 nmol/g directly into the stomach of 24-hour fasted C57/B6 mice; blood 0.5 or 2 hours after administration (FIG. 11)
Experimental: A 100 nmol/g of fatty acid (α-linolenic acid, stearic acid, or octanoic acid) was included in polyethyleneglycol as a vehicle, and given, through a tube, directly into the stomach of 8-week old male C57/B6 mice (Sankyo Lab) after 24-hour fasting. The mice were each anaesthetized with diethyl ether 0.5 or 2 hours after the administration of the fatty acid, followed by sampling the blood from the portal vein using a heparinized syringe. The heparizized blood was centrifuged at 4° C. and 1,200×g for 20 minutes to prepare a plasma which was then subjected to enzyme immunoassay for GLP-1 (Yanaihara Institute Inc.). All experiments were performed according to an institute-approved guideline.

insulin release = details: 100 nmol/g directly into the stomach of 24-hour fasted C57/B6 mice; 2 hours after administration (FIG. 13)
Experimental: All experiments were performed according to an institute-approved guideline.

GT01 = GT01 (Mus musculus, UniProt Q7TMA4); details: STC-1 cells; peak eliminated by RNAi specific for GT01 (FIG. 6)
GT01, sequence (Q7TMA4 whole entry): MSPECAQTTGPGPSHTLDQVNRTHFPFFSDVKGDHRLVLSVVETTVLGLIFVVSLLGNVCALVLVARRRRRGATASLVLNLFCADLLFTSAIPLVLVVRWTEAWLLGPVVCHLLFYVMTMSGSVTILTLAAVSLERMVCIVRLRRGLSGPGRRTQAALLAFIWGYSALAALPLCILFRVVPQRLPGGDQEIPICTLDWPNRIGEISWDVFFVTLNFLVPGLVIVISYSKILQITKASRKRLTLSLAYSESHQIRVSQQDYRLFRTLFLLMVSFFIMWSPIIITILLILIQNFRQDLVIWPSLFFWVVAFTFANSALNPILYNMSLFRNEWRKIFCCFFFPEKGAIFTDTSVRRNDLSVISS
Experimental: Cells (STC-1 cells) are cultured in a 35-mm culture dish with a cover glass in the bottom. After washing with a Ca-tyrode solution, a Ca-tyrode solution containing 2 μM fura-AM is added thereto, which is then placed at room temperature for 20 minutes. After washing twice with a Ca-tyrode solution, 1 mL of Ca-tyrode solution is added thereto, and images are captured at room temperature at 15-second intervals using ARGUS200 (340/380 nm measurement) with a 40× objective lens. For each of the captured images, the ratio is calculated. Stimulation (using bombesin) serving as a control for the ligand is carried out 10 and 20 minutes later.
When an RNAi vector was transfected, fluorescence due to GFP simultaneously transfected is measured; a Ca^2+ response over time for cells having GFP fluorescence and showing Ca^2+ elevation with the control vector was quantitatively determined, and is indicated (FIG. 6).
The gene transfection into STC-1 cells was carried out using Lipofectamine Plus, and intracellular Ca^2+ concentration was then measured under a microscope (lower graph in FIG. 6).

Row | Compound | secretion of GLP-1 from NCI-H716 cells [1] | secretion of GLP-1 (plasma from portal vein) (GLP-1 release) | insulin concentration in plasma, portal vein versus inferior vena cava (insulin release) | elevation of intracellular calcium concentration (GT01)
1 | CCCCCCCC/C=C\CCCCCCCC(=O)O [oleic acid] | promotes the secretion of GLP-1 |  |  | 
2 | CCCCCCCCCCCCCCCC(=O)O [palmitic acid] | promotes the secretion of GLP-1 |  |  | 
3 | CCCCCCCCCCCCCCCCCC(=O)O [stearic acid] |  | induced |  | 
4 | CC/C=C\C/C=C\C/C=C\CCCCCCCC(=O)O [α-linolenic acid] |  | induced | higher concentration of insulin was detected in the plasma sampled from the portal vein | elevates intracellular calcium concentration via GT01
